In patent US20200360364A1, “METHODS AND COMPOSITIONS FOR TREATING INFLAMMATORY OR AUTOIMMUNE DISEASES OR CONDITIONS USING CHRNA6 ACTIVATORS” (Flagship Pioneering Innovations V, Inc., priority 2018, published 2020):
Read-outs that look alike come from different tables or passages of the source.

System: iTreg-mediated immunosuppression of CD8+ T-cell activation
Format: cell-based, human
Details: for Fold Change % IFNγ+ CD8+ Relative to No Compound Condition: 2 nM final concentration

For `CN1CCCC1c1cccnc1` (stereo not shown) [nicotine], the “Fold Change % IFNγ+ CD8+ Relative to No Compound Condition” value (donor BX23981, CD4+ T-cell:CD8+ T-cell ratio 1:2) was 1.20 ± 0.038, the “Fold Change % IFNγ+ CD8+ Relative to No Compound Condition” value (donor BX23981, CD4+ T-cell:CD8+ T-cell ratio 2:1) was 0.88 ± 0.035 and the “Fold Change % IFNγ+ CD8+ Relative to No Compound Condition” value (donor BX24250, CD4+ T-cell:CD8+ T-cell ratio 1:2) was 0.84 ± 0.10. For the same molecule, the “Fold Change % IFNγ+ CD8+ Relative to No Compound Condition” value (donor BX24250, CD4+ T-cell:CD8+ T-cell ratio 2:1) was 1.07 ± 0.046, the “Fold Change % IFNγ+ CD8+ Relative to No Compound Condition” value (donor BX26425, CD4+ T-cell:CD8+ T-cell ratio 1:1) was 0.31 ± 0.089 and the “Fold Change % IFNγ+ CD8+ Relative to No Compound Condition” value (donor BX26425, CD4+ T-cell:CD8+ T-cell ratio 1:2) was 0.42 ± 0.044. For the same molecule, the “Fold Change % IFNγ+ CD8+ Relative to No Compound Condition” value (donor BX26425, CD4+ T-cell:CD8+ T-cell ratio 2:1) was 0.18 ± 0.11, the “Fold Change % IFNγ+ CD8+ Relative to No Compound Condition” value (donor BX26825, CD4+ T-cell:CD8+ T-cell ratio 1:1) was 0.70 ± 0.10 and the “Fold Change % IFNγ+ CD8+ Relative to No Compound Condition” value (donor BX26825, CD4+ T-cell:CD8+ T-cell ratio 1:2) was 0.91 ± 0.14. The “Fold Change % IFNγ+ CD8+ Relative to No Compound Condition” value (donor BX27275, CD4+ T-cell:CD8+ T-cell ratio 1:1) was 1.16 ± 0.12, the “Fold Change % IFNγ+ CD8+ Relative to No Compound Condition” value (donor BX27275, CD4+ T-cell:CD8+ T-cell ratio 2:1) was 1.38 ± 0.41 and the “Fold Change % IFNγ+ CD8+ Relative to No Compound Condition” value (donor BX27275, CD4+ T-cell:CD8+ T-cell ratio 2:1 (first line)) was 0.9 ± 0.12. The “IFNγ+CD8+ T-cells in co-culture” value (final concentration of 2 nM, added at beginning of iTreg/CD8+ co-culture, read three days after co-culture) was “trend of decreasing IFNγ+CD8+ T-cells”.
